Results from article PMC7913881, “The First Step of Biodegradation of 7-Hydroxycoumarin in Pseudomonas mandelii 7HK4 Depends on an Alcohol Dehydrogenase-Type Enzyme” (International Journal of Molecular Sciences, 2021).

Columns and labels:
(UniProt A0A890JDX9) = molecular target: T1, (UniProt A0A890JDX9); experiment: spectrophotometric NADPH oxidation kinetics with purified enzyme; substrate and substrate inhibitor; assay type: biochemical, Pseudomonas mandelii
T1 construct: gene hcdE; recombinant C-terminally His6-tagged protein
T1 sequence (A0A890JDX9 1-376 limits assumed): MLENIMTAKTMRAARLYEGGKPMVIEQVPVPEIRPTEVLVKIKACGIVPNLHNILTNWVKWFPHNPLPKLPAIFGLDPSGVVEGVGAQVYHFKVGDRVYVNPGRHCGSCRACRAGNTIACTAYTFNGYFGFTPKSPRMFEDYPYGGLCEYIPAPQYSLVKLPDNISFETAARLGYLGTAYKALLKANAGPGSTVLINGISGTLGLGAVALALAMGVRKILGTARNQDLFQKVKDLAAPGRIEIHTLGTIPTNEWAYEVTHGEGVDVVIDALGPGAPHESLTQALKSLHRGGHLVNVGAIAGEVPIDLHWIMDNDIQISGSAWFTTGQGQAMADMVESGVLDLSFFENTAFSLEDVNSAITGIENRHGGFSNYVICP
Source text: spectrophotometric NADPH oxidation kinetics with purified enzyme; substrate and substrate inhibitor on HcdE | 7-hydroxycoumarin was likely a pseudo-competitive inhibitor characterized by the inhibition constant Ki

[1] = system: NC(=O)C1=CN([C@@H]2O[C@H](COP(=O)(O)OP(=O)(O)OC[C@H]3O[C@@H](n4cnc5c(N)ncnc54)[C@H](OP(=O)(O)O)[C@@H]3O)[C@@H](O)[C@H]2O)C=CC1; experiment: purified protein; conditions: varied: cofactor

Row | Compound | Ki ((UniProt A0A890JDX9)) [mM] | Km [1] [µM]
1 | O=c1ccc2ccc(O)cc2o1 [compound 1, 7-hydroxycoumarin] | 22 | 
2 | HcdE (Pseudomonas mandelii) |  | 20
